Assay results: US5519138A, “Phenylalkyl derivatives, with pharmaceutical activity” (Dr. Karl Thomae GmbH, priority 1991, dated 1996)

Each molecule was assayed against T1, Angiotensin II-receptor (Rattus norvegicus, UniProt P25095) (assay: Angiotensin II-receptor bonding). Conditions: not given.
T1 construct: The tissue (rats lung) is homogenised in Tris-buffer; from tissue; host or cells: rat lung homogenate (washed 20,000x g pellet)
T1 sequence (P25095 1-359): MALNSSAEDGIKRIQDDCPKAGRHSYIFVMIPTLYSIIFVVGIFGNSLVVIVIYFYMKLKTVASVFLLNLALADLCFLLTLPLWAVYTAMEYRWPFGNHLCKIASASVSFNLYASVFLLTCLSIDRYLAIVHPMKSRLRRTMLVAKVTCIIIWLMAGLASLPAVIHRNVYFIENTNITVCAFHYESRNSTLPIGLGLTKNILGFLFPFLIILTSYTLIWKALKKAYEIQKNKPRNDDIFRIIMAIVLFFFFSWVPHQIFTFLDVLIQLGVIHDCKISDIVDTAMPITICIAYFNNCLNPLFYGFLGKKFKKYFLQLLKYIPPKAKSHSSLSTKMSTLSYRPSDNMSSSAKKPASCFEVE
Assay type: binding
Protocol: Description of method: Angiotensin II-receptor bonding
The tissue (rats lung) is homogenised in Tris-buffer (50 mMol Tris, 150 mMol NaCl, 5 mMol EDTA, pH 7.40) and centrifuged twice for 20 minutes at 20,000x g. The finished pellets are resuspended in incubating buffer (50 mMol Tris, 5 mMol MgCl2, 0.2% BSA, pH 7.40) 1:75, based on the moist weight of the tissue. Each 0.1 ml of homogenate is incubated for 60 minutes at 37° C. with 50 pM [^125 I]-angiotensin II (NEN, Dreieich, FRG) with increasing concentrations of the test substance in a total volume of 0.25 ml. Incubation is ended by rapid filtration through glass fibre filter mats. The filters are each washed with 4 ml of ice cold buffer (25 mMol Tris, 2.5 mMol MgCl2, 0.1% BSA, pH 7.40). The bound radioactivity is measured using a gamma-counter. The corresponding IC50 value is obtained from the dose-activity curve.
In the test described, substances A to I show the following IC50 values: […]

Compound	IC50
CCCCc1nc2ccccc2n1Cc1ccc(NC(c2ccccc2)P(=O)(O)OCC)cc1 (stereo not drawn) [Substance I, 2-n-Butyl-1-[4-[α-(O-ethyl-phosphono)benzylamino]benzyl]benzimidazole]	560 nM

Same assay, conditions: rats lung homogenate; 50 pM [^125 I]-angiotensin II; 60 minutes at 37° C.; pH 7.40; read-out: IC50

IC50	Compound
2000 nM	Cc1cc(OCc2ccc(OC(C(=O)O)c3ccccc3)cc2)c2ccccc2n1 (stereo not drawn) [Substance D, 2-Methyl-4-[4'-[(α-carboxy)benzyloxy]benzyloxy]quinoline]
12 nM	CCCc1nc2c(C)cc(-c3nc4ccccc4n3C)cc2n1Cc1ccc(OC(c2ccccc2)c2nnn[nH]2)cc1 (stereo not drawn) [Substance F, 2-n-Propyl-4-methyl-6-(1-methyl-benzimidazol-2-yl)-1-[4-[α-(1H-tetrazol-5-yl)benzyloxy]benzyl]benzimidazole]
27 nM	CCCCc1nc2cc(N3CCCN(Cc4ccccc4)C3=O)c(C)nc2n1Cc1ccc(OC(c2ccccc2)c2nnn[nH]2)cc1 (stereo not drawn) [Substance H, 2-n-Butyl-5-methyl-6-(3-benzyl-3,4,5,6-tetrahydro-2(1H)-pyrimidinon-1-yl)-3-[4-[α-(1H-tetrazol-5-yl)benzyloxy]benzyl]imidazo[4,5-b]pyridine]
8 nM	CCCCc1nc2ccc(NC(=O)N(C)C)cc2n1Cc1ccc(OC(C(=O)O)c2ccccc2)cc1 (stereo not drawn) [Substance B, 2-n-Butyl-1-[4-[(α-carboxy)benzyloxy]benzyl]-6-dimethylaminocarbonylamino-benzimidazole]
830 nM	CCCCc1nc2ccc(N(C)C(=O)CC)cc2n1Cc1ccc(OC(CC(C)C)C(=O)O)cc1 (stereo not drawn) [Substance G, 2-n-Butyl-6-(N-propionyl-methylamino)-1-[4-[(1-carboxy-3-methyl)butyloxy]benzyl]benzimidazole]
4 nM	CCCc1nc2c(C)cc(-c3nc4ccccc4n3C)cc2n1Cc1ccc(OC(C(=O)O)c2ccccc2)cc1 (stereo not drawn) [Substance C, 2-n-Propyl-6-(1-methyl-benzimidazol-2-yl)-4-methyl-1-[4-[(α-carboxy)benzyloxy]benzyl]benzimidazole]
2000 nM	CCCCc1nc2c(C)cccc2c(=O)n1Cc1ccc(OC(C(=O)O)c2ccccc2)cc1 (stereo not drawn) [Substance E, 2-n-Butyl-8-methyl-3-[4-[(α-carboxy)benzyloxy]benzyl]-quinazolin-4-one-semihydrate]
76 nM	CCCc1nc2c(C)cccc2n1Cc1ccc(OC(C(=O)O)c2ccccc2)cc1 (stereo not drawn) [Substance A, 2-n-Propyl-4-methyl-1-[4-[(α-carboxy)benzyloxy]benzyl]benzimidazole]
